Results on two molecules are retold here after patent US20250228827A1, “METHODS OF TREATING ERYTHROPOIETIC PROTOPORPHYRIA, X-LINKED PROTOPORPHYRIA, OR CONGENITAL ERYTHROPOIETIC PORPHYRIA WITH GLYCINE TRANSPORT INHIBITORS” (Disc Medicine, Inc., priority 2021, published 2025).

The subject of one experiment is K562 clone 10-9 cells. The experiment in a line: PPIX accumulation in K562-EPP cellular model (Clone 10-9), flow cytometry. The note with it: for effect on PPIX accumulation by flow cytometry: 96 hours; for IC50: Homo sapiens, 96 hours at 37° C., flow cytometry, read-out: IC50 of inhibition of PPIX accumulation. It counts as cell-based. On the procedure: CRISPR-Cas9 technology was utilized to generate genetic changes in the Ferrochelatase gene (FECH). Guide RNA sgRNA-1 was designed to target Exon 3 of FECH genetic locus and generate a knockout allele at the FECH genomic locus by introduction of indels that lead to frameshift of the coding sequence and premature stop codon. The K562 cells were cultured in IMDM medium supplemented with 10% fetal bovine serum (FBS), 1% penicillin/streptomycin (PS). CRISPR Cas9 RNP complex with guide RNA (gRNA) was electroporated in K562 cells. The transfection was performed using 4D Nucleofector, SF kit, FF-120 program. The transfected cells were plated at densities of 0.5 cells per well in 96-well plates in complete medium. Cells were allowed to grow until colonies were visible in the well. The K562-EPP subclones were individually expanded and screened for the FECH knockout genotype by PCR of genomic DNA and for the expression of the FECH gene by RT-PCR. K562-Clone 10 is determined to be heterozygous for the FECH knockout allele and has reduced expression level of FECH mRNA than the parental K562 cell line.
In order to introduce the IVS3-T48C mutation into the wild-type allele of the FECH gene in K562-Clone10, CRISPR Cas9 RNP complex with guide RNA sgRNA-2 and single stranded DNA donor were electroporated into the K562-clonel0 that is already heterozygous for the FECH knockout allele generated from the CRISPR-Cas9 gene editing event described in the previous paragraph. sgRNA-2 was designed to target Intron 3, close to the target site IVS3-T48. Similarly, single-cell clones were isolated from this round of gene editing by limited dilution. TA cloning and Sanger sequencing were used to confirm single-cell clones and genotypes. This procedure generated K562 Clone10-IVS-Clone9 (Clone 10-9), which carries the FECH knockout allele in trans with the IVS3-T48C mutation in the other FECH allele.
The effect of GlyT1 inhibitors on reducing PPIX accumulation was evaluated in the K562-EPP cellular model, Clone 10-9. 900 μL of K562 clone 10-9 cells at 2×10^5 cells/mL in IMDM media with 10% FBS and 1% PS were plated into a 24-well plate. After 24-hour incubation, 100 μL of compound in DMSO/media was added in different concentration. The final concentration of DMSO was 0.1%. The compound was incubated for 96 hours at 37° C. Cell viability and cell count were measured by Vi-CELL XR Complete System. Finally, the effect of the compound on PPIX level was determined by flow cytometry.

For experiment [1], the system named is FECH knockdown CD34+ cells. The experiment in a line: PPIX accumulation in FECH knockdown CD34+ cells (CD34+-EPP cells), LC-MS/MS. It counts as cell-based, human. The note with it: for effect on PPIX accumulation / IC50: FECH knockdown CD34+ cells; for IC50: Homo sapiens, treated 9 days (day 8 to day 16), LC-MS/MS, read-out: IC50 on PPIX levels. An excerpt: To investigate the effects of GlyT1 inhibitors in human hematopoietic stem cells with an EPP phenotype, lentiviral vectors expressing shRNA of FECH were constructed (Table 2) and transduced at 25 MOI into human cord blood-CD34+ cells purchased from Stemexpress.
Specifically, the purchased CD34+ cells were defrosted and expanded for eight days in serum-free Hematopoietic Progenitor Expansion Medium XF (C-28021) supplemented with Cytokine Mix E (human TPO, SCF, FLT-3 ligand and IL-3, #C-39891). During the expansion phase, CD34 expression was monitored, cells were frozen in a serum-free DMSO-based freezing medium (CryoStor® CS2).
For FECH knock-down experiments, cells expanded from a single vial were used to avoid donor heterogeneity. Freshly defrosted cells were expanded for three days (day 0-day 3) and infected with lentivirus expressing shControl or shFECH at an MOI of 25 in the presence of polybrene. After transduction, shRNA expressing cells were selected in the presence of puromycin (1 ug/ml) for four days (day 4-day 7). FECH expression levels were determined in the shFECH transfected CD34+ cells at Day 8. FECH mRNA level was reduced by ˜80% (0.196±0.307) in the shFECH transfected CD34+ cells (FIG. 5A). FECH protein level was reduced by ˜62% in the shFECH transfected CD34+ cells (FIG. 5B and FIG. 5C).
In order to evaluate the effect of GlyT1 inhibitor on PPIX accumulation in CD34^+-EPP cells, the cells were treated with serial dilutions of the compounds or DMSO control in the erythroid differentiation medium for 9 days (day 8 to day 16). The differentiated erythroid cells were harvested at day 16 and assayed for the intracellular PPIX levels by LC-MS/MS.

SMILES strings stand for the structures.

A word on the IC50: it is the concentration that gives 50% inhibition. Regarding `C[C@@H](Oc1ccc(S(C)(=O)=O)cc1C(=O)N1C[C@@H]2C[C@]2(c2cc(C(F)(F)F)on2)C1)C(F)(F)F` [Compound A], in the experiment on K562 clone 10-9 cells, the “effect on PPIX accumulation by flow cytometry” value is given as “dose-dependent inhibition of PPIX accumulation”. The IC50 with K562 clone 10-9 cells stood at 43.5 nM; in experiment [1], 97.1 nM. Further, the PPIX pmol/million cells was determined as 19.2 pmol/million cells in experiment [1] (0.46 nM, sample 1); 18.2 pmol/million cells in experiment [1] (0.46 nM, sample 2); 11.8 pmol/million cells in experiment [1] (1.37 nM, sample 1); 16.7 pmol/million cells in experiment [1] (1.37 nM, sample 2); 18.5 pmol/million cells in experiment [1] (4.12 nM, sample 1); 13.3 pmol/million cells in experiment [1] (4.12 nM, sample 2). Besides, the PPIX pmol/million cells was found to be 30.1 pmol/million cells in experiment [1] (12.35 nM, sample 1); 20.3 pmol/million cells in experiment [1] (12.35 nM, sample 2); 18.5 pmol/million cells in experiment [1] (37.04 nM, sample 1); 19.4 pmol/million cells in experiment [1] (37.04 nM, sample 2); 7 pmol/million cells in experiment [1] (111.11 nM, sample 1); 7.25 pmol/million cells in experiment [1] (111.11 nM, sample 2). In addition, the PPIX pmol/million cells in experiment [1] (333.33 nM, sample 1) amounted to 5.97 pmol/million cells; in experiment [1] (333.33 nM, sample 2), 4.69 pmol/million cells; in experiment [1] (1000.00 nM, sample 1) it was 3.94 pmol/million cells; in experiment [1] (1000.00 nM, sample 2), 6.95 pmol/million cells. Besides, the “effect on PPIX accumulation” value in experiment [1] is recorded as “decreased”.
As for `C[C@H](Oc1ccc(S(C)(=O)=O)cc1C(=O)N1Cc2cc(C(F)(F)F)cnc2C1)C(F)(F)F` [Compound X], the “effect on PPIX accumulation by flow cytometry” value with K562 clone 10-9 cells is on record as “dose-dependent inhibition of PPIX accumulation”. Further, the IC50 with K562 clone 10-9 cells was determined as 76.8 nM; in experiment [1] it was 33.5 nM. Also, the PPIX pmol/million cells in experiment [1] (0.46 nM, sample 1) stood at 25 pmol/million cells; in experiment [1] (0.46 nM, sample 2) it was 27.1 pmol/million cells; in experiment [1] (1.37 nM, sample 1) it was 27.3 pmol/million cells; in experiment [1] (1.37 nM, sample 2), 46.5 pmol/million cells; in experiment [1] (4.12 nM, sample 1) it was 34.4 pmol/million cells; in experiment [1] (4.12 nM, sample 2) it was 24.7 pmol/million cells. Further, the PPIX pmol/million cells is listed as 34.6 pmol/million cells in experiment [1] (12.35 nM, sample 1); 34.6 pmol/million cells in experiment [1] (12.35 nM, sample 2); 14.7 pmol/million cells in experiment [1] (37.04 nM, sample 1); 17.5 pmol/million cells in experiment [1] (37.04 nM, sample 2); 13.6 pmol/million cells in experiment [1] (111.11 nM, sample 1); 13.5 pmol/million cells in experiment [1] (111.11 nM, sample 2). The PPIX pmol/million cells is reported as 14.1 pmol/million cells in experiment [1] (333.33 nM, sample 1); 15.2 pmol/million cells in experiment [1] (333.33 nM, sample 2); 11 pmol/million cells in experiment [1] (1000.00 nM, sample 1); 12.8 pmol/million cells in experiment [1] (1000.00 nM, sample 2). In addition, in experiment [1], the “effect on PPIX accumulation” value is recorded as “decreased PPIX accumulation”.
